Results published in ChEMBL document CHEMBL3352611, “Deconstruction of 6,7-dimethoxy-1,2,3,4-tetrahydroisoquinoline moiety to separate P-glycoprotein (P-gp) activity from σ2 receptor affinity in mixed P-gp/σ2 receptor agents” (Eur J Med Chem, 2015).

How the values were obtained:
[1] = target: Sigma non-opioid intracellular receptor 1 (Cavia porcellus, UniProt Q60492); experiment: Displacement of (+)-[3H]-pentazocine from sigma1 recetor in guinea-pig brain membranes without cerebellum by radioligand binding assay; format: cell membranes, Membrane
Chain of Sigma non-opioid intracellular receptor 1 (Q60492 whole entry): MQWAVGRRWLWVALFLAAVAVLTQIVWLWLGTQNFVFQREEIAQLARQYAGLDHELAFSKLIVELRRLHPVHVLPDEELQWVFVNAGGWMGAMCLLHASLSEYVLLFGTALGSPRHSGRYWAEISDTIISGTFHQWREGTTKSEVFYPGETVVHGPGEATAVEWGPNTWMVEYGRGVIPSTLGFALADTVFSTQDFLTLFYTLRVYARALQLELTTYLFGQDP

[2] = Displacement of [3H]-DTG from sigma2 receptor in rat liver membranes in presence of […] (+)-pentazocine by radioligand binding assay; format: cell membranes, Membrane
[3] = Selectivity index, ratio of Ki for sigma1 recetor in guinea-pig brain membranes to Ki for sigma2 receptor in rat liver membranes; format: cell membranes
[4] = target: ATP-dependent translocase ABCB1 (Homo sapiens, UniProt P08183); experiment: Activity at MDR1 (unknown origin) expressed in MDCK-MDR1 cells by Calcein-AM assay; format: cell-based
Chain of ATP-dependent translocase ABCB1 (P08183 whole entry): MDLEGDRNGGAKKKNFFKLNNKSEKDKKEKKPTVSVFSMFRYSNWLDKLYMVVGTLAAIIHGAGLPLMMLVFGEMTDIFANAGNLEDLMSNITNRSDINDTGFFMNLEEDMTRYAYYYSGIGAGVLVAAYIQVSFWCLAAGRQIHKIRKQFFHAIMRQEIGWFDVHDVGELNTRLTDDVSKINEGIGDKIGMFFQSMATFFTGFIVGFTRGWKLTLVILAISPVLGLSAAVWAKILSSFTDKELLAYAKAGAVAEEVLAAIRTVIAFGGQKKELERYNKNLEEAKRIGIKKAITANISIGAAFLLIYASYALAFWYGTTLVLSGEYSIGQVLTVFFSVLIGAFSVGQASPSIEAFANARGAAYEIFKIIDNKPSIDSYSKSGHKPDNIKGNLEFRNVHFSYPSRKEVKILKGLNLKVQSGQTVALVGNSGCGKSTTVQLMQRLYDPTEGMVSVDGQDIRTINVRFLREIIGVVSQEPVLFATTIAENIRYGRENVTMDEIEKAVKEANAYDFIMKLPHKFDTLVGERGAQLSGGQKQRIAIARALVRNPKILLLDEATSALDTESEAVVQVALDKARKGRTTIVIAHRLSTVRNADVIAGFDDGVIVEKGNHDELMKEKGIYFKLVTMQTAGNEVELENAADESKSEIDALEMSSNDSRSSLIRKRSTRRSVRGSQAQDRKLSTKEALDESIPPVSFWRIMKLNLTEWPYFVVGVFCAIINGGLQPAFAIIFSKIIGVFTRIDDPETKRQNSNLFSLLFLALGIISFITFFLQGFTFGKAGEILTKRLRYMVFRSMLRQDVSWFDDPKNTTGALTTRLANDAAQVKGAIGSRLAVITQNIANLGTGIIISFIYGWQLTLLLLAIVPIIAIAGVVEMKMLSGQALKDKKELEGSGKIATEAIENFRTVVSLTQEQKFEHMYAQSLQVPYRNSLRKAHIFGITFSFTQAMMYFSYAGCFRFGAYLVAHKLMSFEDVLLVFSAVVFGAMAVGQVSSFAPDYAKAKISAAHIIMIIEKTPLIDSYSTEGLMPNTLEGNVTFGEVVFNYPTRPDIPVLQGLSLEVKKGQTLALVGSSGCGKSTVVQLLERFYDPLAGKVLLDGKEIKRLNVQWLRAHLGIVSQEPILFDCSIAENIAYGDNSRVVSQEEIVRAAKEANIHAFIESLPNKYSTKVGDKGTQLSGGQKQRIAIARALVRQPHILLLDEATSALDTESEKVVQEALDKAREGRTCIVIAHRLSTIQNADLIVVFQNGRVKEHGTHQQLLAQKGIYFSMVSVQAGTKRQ

[5] = target: Sigma non-opioid intracellular receptor 1 (Cavia porcellus) (UniProt Q60492); conditions: Brain, Membrane, 10 pM
Chain of Sigma non-opioid intracellular receptor 1 (Cavia porcellus) (Q60492 whole entry): as the sequence (Q60492 whole entry) above

Structure (SMILES) | Ki [1] [nM] | Ki [2] [nM] | Ratio Ki [3] | EC50 [4] [nM] | inhibition [5] [%]
CCN(CCCCc1cn(-c2ccc(F)cc2)c2ccccc12)C1CCc2c1ccc(OC)c2OC (racemic) | 59.2 | 27.6 | 2.14 | 960 | –
CCN(CCCCc1cn(-c2ccc(F)cc2)c2ccccc12)Cc1ccc(OC)cc1 | – | 69.8 | – | 4680 | –
COc1ccc2c(c1OC)CC[C@@H]2NCCCCc1cn(-c2ccc(F)cc2)c2ccccc12 | 122 | 152 | 0.8 | 1340 | –
CCN(CCCCc1cn(-c2ccc(F)cc2)c2ccccc12)[C@@H]1CCc2c1ccc(OC)c2OC | 126 | 35.2 | 3.58 | 1740 | –
COc1ccc2c(c1OC)CCC2NCCCCc1cn(-c2ccc(F)cc2)c2ccccc12 (racemic) | 215 | 115 | 1.87 | 870 | –
COc1cc2c(cc1OC)CN(CCCCc1cn(-c3ccc(F)cc3)c3ccccc13)CC2 | – | 5.34 | 260 | 210 | –
COc1ccc(CCN(C)CCCCc2cn(-c3ccc(F)cc3)c3ccccc23)cc1 | 67.4 | 334 | 0.2 | 4490 | –
CCN(CCCCc1cn(-c2ccc(F)cc2)c2ccccc12)[C@H]1CCc2c1ccc(OC)c2OC | 50.8 | 19 | 2.67 | 700 | –
CCN(CCCCc1cn(-c2ccc(F)cc2)c2ccccc12)Cc1cccc(OC)c1 | 2.44 | 91 | 0.03 | 4580 | –
COc1cc2c(cc1OC)CN(CC/C=C1\CCCc3c(OC)cccc31)CC2 | – | – | – | 820 | –
COc1cccc(CCN(C)CCCCc2cn(-c3ccc(F)cc3)c3ccccc23)c1 | 17.5 | 111 | 0.16 | 6570 | –

More lines, now with the values ahead:

Ki [1] [nM] | Ki [2] [nM] | Ratio Ki [3] | EC50 [4] [nM] | inhibition [5] [%] | Structure (SMILES)
431 | 1400 | 0.3 | 2850 | – | COc1ccc(CCNCCCCc2cn(-c3ccc(F)cc3)c3ccccc23)cc1
337 | 346 | 0.97 | 1350 | – | COc1ccc(CCN(C)CCCCc2cn(-c3ccc(F)cc3)c3ccccc23)cc1OC
2700 | 169 | 16 | 1040 | – | COc1ccc(CNCCCCc2cn(-c3ccc(F)cc3)c3ccccc23)cc1OC
939 | 2100 | 0.45 | 1120 | – | COc1ccc(CCNCCCCc2cn(-c3ccc(F)cc3)c3ccccc23)cc1OC
151 | 580 | 0.26 | 7200 | – | COc1cccc(CCNCCCCc2cn(-c3ccc(F)cc3)c3ccccc23)c1
129 | 231 | 0.56 | 7660 | – | COc1ccc(CNCCCCc2cn(-c3ccc(F)cc3)c3ccccc23)cc1
18.9 | 97.1 | 0.19 | 1790 | 85 | CCN(CCCCc1cn(-c2ccc(F)cc2)c2ccccc12)Cc1ccc(OC)c(OC)c1
175 | 252 | 0.69 | 3450 | – | COc1ccc2c(c1OC)CC[C@H]2NCCCCc1cn(-c2ccc(F)cc2)c2ccccc12
544 | 227 | 2.4 | 2950 | – | COc1cccc(CNCCCCc2cn(-c3ccc(F)cc3)c3ccccc23)c1
